This is an account of results in US10647713B2 (Nimbus Lakshmi, Inc., priority 2016, dated 2020).

Molecules are shown by their SMILES.

This test deals with human TYK2 (JH2domain-pseudokinase) (Homo sapiens (Human), UniProt P29597). Description: TYK2 JH2 Domain Binding Assay (KINOMEscan, DiscoveRx). Conditions: 11-point dilution, duplicate. In short, it runs like this: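 Kd from duplicate 11-point 3-fold dilutions starting at 30,000 nM, fitted by Hill equation with slope fixed at −1. Compounds (final 0.9% DMSO) displace DNA-tagged HEK293-expressed TYK2 JH2 fusion (<0.1 nM) from ligand-coated beads over 1 h at room temperature; eluted kinase read by qPCR.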
Sequence of human TYK2 (JH2domain-pseudokinase) (P29597 556-888): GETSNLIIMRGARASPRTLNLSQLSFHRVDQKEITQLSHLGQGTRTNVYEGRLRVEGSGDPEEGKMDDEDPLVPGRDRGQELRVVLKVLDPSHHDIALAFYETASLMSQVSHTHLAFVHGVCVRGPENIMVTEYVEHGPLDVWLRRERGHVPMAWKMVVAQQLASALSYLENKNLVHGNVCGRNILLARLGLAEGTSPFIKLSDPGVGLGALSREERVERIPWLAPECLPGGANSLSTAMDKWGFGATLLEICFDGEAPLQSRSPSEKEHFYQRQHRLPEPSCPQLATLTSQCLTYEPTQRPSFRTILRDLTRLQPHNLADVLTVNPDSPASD
Consider `COc1cc(-c2cncn2C)ccc1Nc1cc(Nc2cnc(C)c(C)n2)nc2[nH]c(C(F)F)nc12` [I-144, 2-(difluoromethyl)-N5-(5,6-dimethylpyrazin-2-yl)-N7-(2-methoxy-4-(1-methyl-1H-imidazol-5-yl)phenyl)-3H-imidazo[4,5-b]pyridine-5,7-diamine], for which the Kd is above 10 nM.
In turn, `Cc1cnn(-c2ccc(Nc3cc(NC(=O)C4CC4)nc4[nH]c(C)nc34)c(N(C)S(C)(=O)=O)c2)c1` [I-145, N-(2-methyl-7-((4-(4-methyl-1H-pyrazol-1-yl)-2-(N-methylmethylsulfonamido)phenyl)amino)-3H-imidazo[4,5-b]pyridin-5-yl)cyclopropanecarboxamide] came in with a Kd of 0.5 to 1 nM.
`COc1c(Nc2cc(NC(=O)C3CC3)nc3[nH]c(C(F)F)nc23)cccc1-c1c(C)nnn1C` [I-146, N-(2-(difluoromethyl)-7-((3-(1,4-dimethyl-1H-1,2,3-triazol-5-yl)-2-methoxyphenyl)amino)-3H-imidazo[4,5-b]pyridin-5-yl)cyclopropanecarboxamide] displayed a Kd of 1 to 10 nM.
In the case of `CN(c1cc(-c2cncn2C)ccc1Nc1cc(NC(=O)C2CC2)nc2[nH]c(C(F)F)nc12)S(C)(=O)=O` [I-147, N-(2-(difluoromethyl)-7-((4-(1-methyl-1H-imidazol-5-yl)-2-(N-methylmethylsulfonamido)phenyl)amino)-3H-imidazo[4,5-b]pyridin-5-yl)cyclopropanecarboxamide] it was below 0.1 nM.
In turn, `Cn1ccc(-c2ccc(Nc3cc(NC(=O)C4CC4)nc4[nH]c(C(F)F)nc34)c(S(C)(=O)=O)c2)n1` [I-148, N-(2-(difluoromethyl)-7-((4-(1-methyl-1H-pyrazol-3-yl)-2-(methylsulfonyl)phenyl)amino)-3H-imidazo[4,5-b]pyridin-5-yl)cyclopropanecarboxamide] showed a Kd of 0.1 to 0.5 nM.
On to `COc1c(Nc2cc(NC(=O)C3CC3)nc3[nH]c(C)nc23)cccc1-n1nc(C)nc1C` [I-149, N-(7-((3-(3,5-dimethyl-1H-1,2,4-triazol-1-yl)-2-methoxyphenyl)amino)-2-methyl-3H-imidazo[4,5-b]pyridin-5-yl)cyclopropanecarboxamide], for which the Kd is above 10 nM.
`COCc1ccc(Nc2cc(NC(=O)C3CC3)nc3[nH]c(C)nc23)c(N(C)S(C)(=O)=O)c1` [I-150, N-(7-((4-(methoxymethyl)-2-(N-methylmethylsulfonamido)phenyl)amino)-2-methyl-3H-imidazo[4,5-b]pyridin-5-yl)cyclopropanecarboxamide] yielded a dissociation constant (Kd) of 0.1 to 0.5 nM.
Consider `COc1cc(-c2cncn2C)ccc1Nc1cc(NC(=O)C2CC2)nc2[nH]c(C)nc12` [I-151, N-(7-((2-methoxy-4-(1-methyl-1H-imidazol-5-yl)phenyl)amino)-2-methyl-3H-imidazo[4,5-b]pyridin-5-yl)cyclopropanecarboxamide], for which the dissociation constant Kd was in the range of 1 to 10 nM.
`COc1cc(-c2cncn2C)ccc1Nc1cc(Nc2cnc(C)c(C)n2)nc2[nH]c(C)nc12` [I-152, N5-(5,6-dimethylpyrazin-2-yl)-N7-(2-methoxy-4-(1-methyl-1H-imidazol-5-yl)phenyl)-2-methyl-3H-imidazo[4,5-b]pyridine-5,7-diamine] returned a Kd of 1 to 10 nM.
`Cc1nc2c(Nc3ccc(-c4cncn4C)cc3N(C)S(C)(=O)=O)cc(NC(=O)C3CC3)nc2[nH]1` [I-153, N-(2-methyl-7-((4-(1-methyl-1H-imidazol-5-yl)-2-(N-methylmethylsulfonamido)phenyl)amino)-3H-imidazo[4,5-b]pyridin-5-yl)cyclopropanecarboxamide] gave a Kd of 0.1 to 0.5 nM.
`Cc1ncc(Nc2cc(Nc3ccc(-c4cncn4C)cc3N(C)S(C)(=O)=O)c3nc(C(F)F)[nH]c3n2)nc1C` [I-154, N-(2-((2-(difluoromethyl)-5-((5,6-dimethylpyrazin-2-yl)amino)-3H-imidazo[4,5-b]pyridin-7-yl)amino)-5-(1-methyl-1H-imidazol-5-yl)phenyl)-N-methylmethanesulfonamide] had a Kd of 0.1 to 0.5 nM.
To `COc1c(Nc2cc(NC(=O)C3CC3)nc3[nH]c(C(F)F)nc23)cccc1-c1nnn(C)c1C` [I-155, N-(2-(difluoromethyl)-7-((3-(1,5-dimethyl-1H-1,2,3-triazol-4-yl)-2-methoxyphenyl)amino)-3H-imidazo[4,5-b]pyridin-5-yl)cyclopropanecarboxamide] belongs 1 to 10 nM; to `Cc1nc2c(Nc3ccc(-c4cn(C)cn4)cc3N(C)S(C)(=O)=O)cc(NC(=O)C3CC3)nc2[nH]1` [I-156, N-(2-methyl-7-((4-(1-methyl-1H-imidazol-4-yl)-2-(N-methylmethylsulfonamido)phenyl)amino)-3H-imidazo[4,5-b]pyridin-5-yl)cyclopropanecarboxamide], 0.1 to 0.5 nM; to `COc1c(Nc2cc(NC(=O)C3CC3)nc3[nH]c(C)nc23)cccc1-c1c(C)nnn1C` [I-157, N-(7-((3-(1,4-dimethyl-1H-1,2,3-triazol-5-yl)-2-methoxyphenyl)amino)-2-methyl-3H-imidazo[4,5-b]pyridin-5-yl)cyclopropanecarboxamide], 1 to 10 nM.
`COc1c(Nc2cc(NC(=O)C3CC3)nc3[nH]c(C)nc23)cccc1-c1nnn(C)c1C` [I-158, N-(7-((3-(1,5-dimethyl-1H-1,2,3-triazol-4-yl)-2-methoxyphenyl)amino)-2-methyl-3H-imidazo[4,5-b]pyridin-5-yl)cyclopropanecarboxamide]: the Kd is above 10 nM.
To `CS(=O)(=O)c1ccccc1Nc1cc(NC(=O)C2CC2)nc2[nH]c(C(F)F)nc12` [I-159] belongs 0.1 to 0.5 nM.
Compound `COc1cc(-c2cncn2C)ccc1Nc1cc(Nc2cccc(C#N)n2)nc2[nH]c(C)nc12` [I-160, 6-((7-((2-methoxy-4-(1-methyl-1H-imidazol-5-yl)phenyl)amino)-2-methyl-3H-imidazo[4,5-b]pyridin-5-yl)amino)picolinonitrile] returned a Kd of 1 to 10 nM.
Regarding `COc1cc(-c2nc(C)nn2C)ccc1Nc1cc(NC(=O)C2CC2)nc2[nH]c(C(F)F)nc12` [I-161, N-(2-(difluoromethyl)-7-((4-(1,3-dimethyl-1H-1,2,4-triazol-5-yl)-2-methoxyphenyl)amino)-3H-imidazo[4,5-b]pyridin-5-yl)cyclopropanecarboxamide], the Kd fell in the range of 1 to 10 nM.
Turning to `COc1c(Nc2cc(NC(=O)C3CC3)nc3[nH]c(C)nc23)cccc1-n1ncnc1C` [I-162, N-(7-((2-methoxy-3-(5-methyl-1H-1,2,4-triazol-1-yl)phenyl)amino)-2-methyl-3H-imidazo[4,5-b]pyridin-5-yl)cyclopropanecarboxamide], the Kd is above 10 nM.
Consider `COc1cc(-c2nc(C)nn2C)ccc1Nc1cc(NC(=O)C2CC2)nc2[nH]c(C)nc12` [I-163, N-(7-((4-(1,3-dimethyl-1H-1,2,4-triazol-5-yl)-2-methoxyphenyl)amino)-2-methyl-3H-imidazo[4,5-b]pyridin-5-yl)cyclopropanecarboxamide], for which the Kd is 0.5 to 1 nM.
Take `Cc1nc(-c2ccc(Nc3cc(NC(=O)C4CC4)nc4[nH]c(C(F)F)nc34)c(N(C)S(C)(=O)=O)c2)n(C)n1` [I-164, N-(2-(difluoromethyl)-7-((4-(1,3-dimethyl-1H-1,2,4-triazol-5-yl)-2-(N-methylmethylsulfonamido)phenyl)amino)-3H-imidazo[4,5-b]pyridin-5-yl)cyclopropanecarboxamide]: the Kd was in the range of 0.1 to 0.5 nM.
`Cc1nc(-c2ccc(Nc3cc(NC(=O)C4CC4)nc4[nH]c(C)nc34)c(N(C)S(C)(=O)=O)c2)n(C)n1` [I-165, N-(7-((4-(1,3-dimethyl-1H-1,2,4-triazol-5-yl)-2-(N-methylmethylsulfonamido)phenyl)amino)-2-methyl-3H-imidazo[4,5-b]pyridin-5-yl)cyclopropanecarboxamide] showed a Kd above 10 nM.
In the case of `Cc1nc(-c2ccc(Nc3cc(Nc4cnc(C)c(C)n4)nc4[nH]c(C(F)F)nc34)c(N(C)S(C)(=O)=O)c2)n(C)n1` [I-166, N-(2-((2-(difluoromethyl)-5-((5,6-dimethylpyrazin-2-yl)amino)-3H-imidazo[4,5-b]pyridin-7-yl)amino)-5-(1,3-dimethyl-1H-1,2,4-triazol-5-yl)phenyl)-N-methyl-methanesulfonamide], the equilibrium dissociation constant (Kd) is 0.1 to 0.5 nM.
`COc1c(Nc2cc(Nc3cc(F)c(N4CC(OC)C4)cn3)nc3[nH]c(C(F)F)nc23)cccc1-c1nc(C)nn1C` [I-167, 2-(difluoromethyl)-N7-(3-(1,3-dimethyl-1H-1,2,4-triazol-5-yl)-2-methoxyphenyl)-N5-(4-fluoro-5-(3-methoxyazetidin-1-yl)pyridin-2-yl)-3H-imidazo[4,5-b]pyridine-5,7-diamine] yielded a Kd above 10 nM.
For the compound `COc1c(Nc2cc(Nc3cc(F)c(N4CC(OC)C4)cn3)nc3[nH]c(C)nc23)cccc1-c1nc(C)nn1C` [I-168, N7-(3-(1,3-dimethyl-1H-1,2,4-triazol-5-yl)-2-methoxyphenyl)-N5-(4-fluoro-5-(3-methoxyazetidin-1-yl)pyridin-2-yl)-2-methyl-3H-imidazo[4,5-b]pyridine-5,7-diamine], the Kd was above 10 nM.
`Cc1cnc(-c2ccc(Nc3cc(NC(=O)C4CC4)nc4[nH]c(C(F)F)nc34)c(N(C)S(C)(=O)=O)c2)n1C` [I-169, N-(2-(difluoromethyl)-7-((4-(1,5-dimethyl-1H-imidazol-2-yl)-2-(N-methylmethylsulfonamido)phenyl)amino)-3H-imidazo[4,5-b]pyridin-5-yl)cyclopropanecarboxamide] displayed a dissociation constant (Kd) of 0.1 to 0.5 nM.
Turning to `Cc1nc2c(Nc3ccc(-c4ncc(C)n4C)cc3N(C)S(C)(=O)=O)cc(NC(=O)C3CC3)nc2[nH]1` [I-170, N-(7-((4-(1,5-dimethyl-1H-imidazol-2-yl)-2-(N-methylmethyl-sulfonamido)phenyl)amino)-2-methyl-3H-imidazo[4,5-b]pyridin-5-yl)cyclopropanecarboxamide], the Kd was in the range of 0.1 to 0.5 nM.
The compound `CN(c1cc(-c2ccn(C)n2)ccc1Nc1cc(NC(=O)C2CC2)nc2[nH]c(C(F)F)nc12)S(C)(=O)=O` [I-171, N-(2-(difluoromethyl)-7-((4-(1-methyl-1H-pyrazol-3-yl)-2-(N-methylmethylsulfonamido)phenyl)amino)-3H-imidazo[4,5-b]pyridin-5-yl)cyclopropaneCarboxamide] displayed a Kd of 0.1 to 0.5 nM.
